Reference: patent US4093796A, “Antibiotic derivatives of polyene macrolide group and method of obtaining the same” (Politechnika Gdanska, priority 1971, dated 1978)
Converted amounts (≈) assume the structure as drawn.

Experiments:
Type in all cases: cell-based
tested microorganisms = experiment: antimicrobial activity in liquid nutrient medium (serial dilution, turbidity)
Procedure: (b) determination of the antimicrobial activity of antibiotics and their derivatives in liquid nutrient medium-- table 2.
The antimicrobial activity of antibiotics and their derivatives in liquid nutrient medium has been determined by making serial dilutions of antibiotics in the manner described above and by mixing of 0.5 ml of antibiotic solution with 4.5 ml of medium inoculated with tested microorganisms and prepared after Sabouraud without agar and with the addition of tarchocilin in the amount of 25 mg per 1 l. Solutions were allowed to stand for 48 hours at the temperature of 32° C.
Minimum concentration that inhibits the microorganisms growth has been determined on the basis of turbidity determined by extinction growth at […]; results are compared in table 2.

Candida albicans [1] = experiment: inhibition of pathogenic strains isolated from contaminated human members, Candida albicans; settings: 12 strains studied
Procedure: (§3) Studies were also conducted on the activity of the glucose derivative of nystatin, as compared with nystatin, in relation to a series of pathogenic strains of Candida and Geotrichum isolated from contaminated human members.

Candida sp. = experiment: inhibition of pathogenic strains isolated from contaminated human members, Candida sp.; settings: 8 strains studied
Procedure: as §3

Candida albicans [2] = experiment: antimicrobial activity in solid nutrient medium (serial dilution), Candida albicans; settings: solid Sabouraud medium, 36° C, 24 hours
Procedure: (§1) (a) determination of the antimicrobial activity of antibiotics and their derivatives in solid nutrient medium-- table 1
(§2) The antimicrobial activity in solid nutrient medium has been estimated with the aid of the serial dilution method as follows: 1 mg of antibiotic was dissolved in 1 ml of dimethylsulphoxide and diluted with 9 ml of sterile water. Serial dilutions in water had been performed and the minimum concentration inhibiting the growth of standard strains of Candida albicans and Saccahromyces cerevisiae estimated: 0.5 ml of the antibiotic solution was mixed in a Petri dish 10 cm in diameter with 9.5 ml of Sabouraud medium having a temperature of about 60° C. After mixing, solidifying the nutrient agar and inoculating the test microorganism on the surface, they were incubated at 36° C for 24 hours. The minimum inhibitory concentration was stated on the basis of observed absence of microorganism growth.

Saccahromyces cerevisiae = experiment: antimicrobial activity in solid nutrient medium (serial dilution), Saccharomyces cerevisiae; settings: solid Sabouraud medium, 36° C, 24 hours
Procedure: as §1, §2

Geotrichum sp. = experiment: inhibition of pathogenic strains isolated from contaminated human members, Geotrichum sp.; settings: 12 strains studied
Procedure: as §3

[3] = liquid medium after Sabouraud without agar, 48 hours, 32° C, extinction at 660 mm

C[C@@H]1[C@H](O)[C@@H](C)/C=C/C=C/C=C/C=C/C=C/C=C/C=C/[C@H](O[C@@H]2O[C@H](C)[C@@H](O)[C@H](N)[C@@H]2O)C[C@@H]2O[C@](O)(C[C@@H](O)[C@H](O)CC[C@@H](O)CC(=O)C[C@@H](O)CC(=O)O[C@H]1C)C[C@H](O)[C@H]2C(=O)O [mycoheptin]
MIC (tested microorganisms; [3]): 2.5 µg/mL (≈ 2.71 µM)

CC1C=CC=CCCC=CC=CC=CC=CC(OC2OC(C)C(O)C(N)C2O)CC2OC(O)(CC(O)C(O)CCC(O)CC(O)CC(O)CC(=O)OC(C)C(C)C1O)CC(O)C2C(=O)O (centres unmarked) [nystatin A1]
MIC (tested microorganisms; 48 h): 0.5 µg/mL (≈ 0.54 µM)

C[C@@H]1[C@H](O)[C@@H](C)/C=C/C=C/CC/C=C/C=C/C=C/C=C/C(O[C@H]2O[C@H](C)[C@@H](O)[C@H](N)[C@@H]2O)CC2O[C@](O)(CC(O)C(O)CCC(O)CC(O)CC(O)CC(=O)O[C@H]1C)CC(O)C2C(=O)O (some centres unmarked) [nystatin]
Number of strains the growth of which has been inhibited (Candida albicans [1]; Candida albicans after 24 hrs, 1.56 mcg/ml): 1 strains | Number of strains the growth of which has been inhibited (Candida albicans [1]; Candida albicans after 24 hrs, 3.12 mcg/ml): 11 strains | Number of strains the growth of which has been inhibited (Candida albicans [1]; Candida albicans after 24 hrs, 6.25 mcg/ml): 0 strains | Number of strains the growth of which has been inhibited (Candida albicans [1]; Candida albicans after 24 hrs, 12.5 mcg/ml): 0 strains | Number of strains the growth of which has been inhibited (Candida albicans [1]; Candida albicans after 24 hrs, 25.0 mcg/ml): 0 strains | Number of strains the growth of which has been inhibited (Candida albicans [1]; Candida albicans after 24 hrs, 50.0 mcg/ml): 0 strains | Number of strains the growth of which has been inhibited (Candida albicans [1]; Candida albicans after 48 hrs, 1.56 mcg/ml): 0 strains | Number of strains the growth of which has been inhibited (Candida albicans [1]; Candida albicans after 48 hrs, 3.12 mcg/ml): 2 strains | Number of strains the growth of which has been inhibited (Candida albicans [1]; Candida albicans after 48 hrs, 6.25 mcg/ml): 10 strains | Number of strains the growth of which has been inhibited (Candida albicans [1]; Candida albicans after 48 hrs, 12.5 mcg/ml): 0 strains | Number of strains the growth of which has been inhibited (Candida albicans [1]; Candida albicans after 48 hrs, 25.0 mcg/ml): 0 strains | Number of strains the growth of which has been inhibited (Candida albicans [1]; Candida albicans after 48 hrs, 50.0 mcg/ml): 0 strains | Number of strains the growth of which has been inhibited (Candida sp.; Candida sp. after 24 hrs, 1.56 mcg/ml): 2 strains | Number of strains the growth of which has been inhibited (Candida sp.; Candida sp. after 24 hrs, 3.12 mcg/ml): 3 strains | Number of strains the growth of which has been inhibited (Candida sp.; Candida sp. after 24 hrs, 6.25 mcg/ml): 1 strains | Number of strains the growth of which has been inhibited (Candida sp.; Candida sp. after 24 hrs, 12.5 mcg/ml): 2 strains | Number of strains the growth of which has been inhibited (Candida sp.; Candida sp. after 24 hrs, 25.0 mcg/ml): 0 strains | Number of strains the growth of which has been inhibited (Candida sp.; Candida sp. after 24 hrs, 50.0 mcg/ml): 0 strains | Number of strains the growth of which has been inhibited (Candida sp.; Candida sp. after 48 hrs, 1.56 mcg/ml): 0 strains | Number of strains the growth of which has been inhibited (Candida sp.; Candida sp. after 48 hrs, 3.12 mcg/ml): 3 strains | Number of strains the growth of which has been inhibited (Candida sp.; Candida sp. after 48 hrs, 6.25 mcg/ml): 1 strains | Number of strains the growth of which has been inhibited (Candida sp.; Candida sp. after 48 hrs, 12.5 mcg/ml): 3 strains | Number of strains the growth of which has been inhibited (Candida sp.; Candida sp. after 48 hrs, 25.0 mcg/ml): 1 strains | Number of strains the growth of which has been inhibited (Candida sp.; Candida sp. after 48 hrs, 50.0 mcg/ml): 0 strains | Minimum inhibitory concentration against Candida albicans (Candida albicans [2]): 2 µg/mL (≈ 2.16 µM) | Minimum inhibitory concentration against cerevisiae (Saccahromyces cerevisiae): 2 µg/mL (≈ 2.16 µM) | Number of strains the growth of which has been inhibited (Geotrichum sp.; Geotrichum sp. after 24 hrs, 1.56 mcg/ml): 0 strains | Number of strains the growth of which has been inhibited (Geotrichum sp.; Geotrichum sp. after 24 hrs, 3.12 mcg/ml): 2 strains | Number of strains the growth of which has been inhibited (Geotrichum sp.; Geotrichum sp. after 24 hrs, 6.25 mcg/ml): 10 strains | Number of strains the growth of which has been inhibited (Geotrichum sp.; Geotrichum sp. after 24 hrs, 12.5 mcg/ml): 0 strains | Number of strains the growth of which has been inhibited (Geotrichum sp.; Geotrichum sp. after 24 hrs, 25.0 mcg/ml): 0 strains | Number of strains the growth of which has been inhibited (Geotrichum sp.; Geotrichum sp. after 24 hrs, 50.0 mcg/ml): 0 strains | Number of strains the growth of which has been inhibited (Geotrichum sp.; Geotrichum sp. after 48 hrs, 1.56 mcg/ml): 0 strains | Number of strains the growth of which has been inhibited (Geotrichum sp.; Geotrichum sp. after 48 hrs, 3.12 mcg/ml): 0 strains | Number of strains the growth of which has been inhibited (Geotrichum sp.; Geotrichum sp. after 48 hrs, 6.25 mcg/ml): 5 strains | Number of strains the growth of which has been inhibited (Geotrichum sp.; Geotrichum sp. after 48 hrs, 12.5 mcg/ml): 7 strains | Number of strains the growth of which has been inhibited (Geotrichum sp.; Geotrichum sp. after 48 hrs, 25.0 mcg/ml): 0 strains | Number of strains the growth of which has been inhibited (Geotrichum sp.; Geotrichum sp. after 48 hrs, 50.0 mcg/ml): 0 strains

C[C@@H]1C/C=C/C=C/C=C/C=C/[C@H](O[C@@H]2O[C@H](C)[C@@H](O)[C@H](N)[C@@H]2O)C[C@@H]2O[C@](O)(C[C@@H](O)C[C@H]3O[C@@H]3/C=C/C(=O)O1)C[C@H](O)[C@H]2C(=O)O [pimaricin]
MIC (tested microorganisms; 48 h): 2.5 µg/mL (≈ 3.76 µM)

CCC[C@@H]1C/C=C/C=C/C=C/C=C/[C@H](O[C@@H]2O[C@H](C)[C@@H](O)[C@H](N)[C@@H]2O)C[C@@H]2O[C@](O)(C[C@@H](O)CCCC(=O)C[C@@H](O)[C@H](CC)C(=O)O1)C[C@H](O)[C@H]2C(=O)O [rimocidin]
MIC (tested microorganisms; [3]): 2.5 µg/mL (≈ 3.26 µM)

candicidin
MIC (tested microorganisms; [3]): 0.001 µg/mL

trichomycin
MIC (tested microorganisms; [3]): 0.001 µg/mL
